Where no end group is shown, it is not given here.
Tested on: rats
Experiment: Natriuretic and diuretic effect of intravenous bolus injection in anesthetized rats
Type: in vivo, rat
Conditions: 30 to 60 min after minus 30 to 0 min before injection, mean ± SEM
Method: Diuretic and natriuretic activity of the peptides of this invention is assayed in male rats of the Sprague-Dawley or Long-Evans strains. Peptide or vehicle (for control purposes) is administered by intravenous bolus injection or by continuous infusion into one renal artery of animals anesthetized for the duration of the experiment, or by intramuscular or subcutaneous injection into animals only briefly anesthetized with ether and subsequently conscious and freely moving until completion of the experiment. Timed urine samples are collected for determination of volume and measurement of sodium and potassium concentration by flame photometry. Details of each method are given in Examples II to IV below.
The natriuretic and diuretic effect of intravenous bolus injection of peptides F15R, G13R and E19R was tested in male Sprague-Dawley or Long-Evans rats weighing 300-400 g. The animals were given Inactin®, 120 mg per kg body weight i.p. under light ether anesthesia. Following placement of a tracheal cannula, the right femoral vein was catheterized for infusion of 5% bovine serum albumin at a dose of 0.4% of body weight and at a rate of 6.0 ml/hour. Subsequently, normal saline was infused for the duration of the experiment at a rate of 2.0 ml/hour. The bladder was exposed through an abdominal incision and catheterized for urine collection. Serial 15-minute urine collections in preweighed vials were begun after a recovery period of 45 minutes. After collection of four control samples, the peptide in 0.1 ml of vehicle was injected into the femoral vein over a period of 1 minute and 6 to 10 further urine samples were collected. Urine volume was determined by weighing and urine sodium and potassium were assayed by flame photometry. All peptides produced natriuresis and diuresis reaching peak levels usually between 30 and 60 minutes after injection. The difference between urine volume and sodium excretion observed from 30 to 60 minutes after and 30 to 0 minutes before peptide administration was calculated for each rat as a measure of activity.

What does the source list for GNGDEQPLTPNPR [G13R]?
Change in Sodium Excretion (i.v. bolus 0.100 nmol): 8.39 ± 4.41 μeq/30 minutes; Change in Urine Volume (i.v. bolus 0.100 nmol): 80.0 ± 29.2 μl/30 minutes; Change in Sodium Excretion (i.v. bolus 1.00 nmol): 12.48 ± 6.22 μeq/30 minutes; Change in Urine Volume (i.v. bolus 1.00 nmol): 62.0 ± 17.2 μl/30 minutes

Reference: patent US5135912A, “Natriuretic peptides from the pituitary prohormone proopiomelanocortin” (Tosoh Corporation, priority 1988, dated 1992)
